Results: US20190358182A1, “NOVEL MECHANISM FOR DECREASING OPIOID REWARD” (THE TRUSTEES OF INDIANA UNIVERSITY, priority 2018, published 2019)
“Also recorded” adds a separate entry of the source.

How the values were obtained:
PSD95-nNOS [1] = target: T1, PSD95-nNOS (Homo sapiens, UniProt P29475+P78352); test: Alphascreen in vitro assay of PSD95-nNOS binding (purified proteins); conditions: purified nNOS and PSD95 proteins, FIG. 2
From the text: Mechanism: We developed an in vitro assay using Alphascreen to establish whether IC87201 and ZL006 directly disrupt interactions between purified nNOS and PSD95 proteins. […] A later group identified ZL006.

PSD95-ERB4 = PSD95-ERB4 (Homo sapiens, UniProt P78352); test: Alphascreen, interaction of PSD95 with unrelated proteins; type: binding; conditions: FIG. 2
[2] = test system: NMDA-induced NO formation; test: NMDA-induced NO formation / cGMP levels in primary hippocampal cultures; type: cell-based; conditions: for NMDA-induced NO formation: data not shown, Smith et al. (2016); for NMDA-stimulated cGMP levels: primary hippocampal cultures, published in Smith et al. (2016)
rats [3] = test: Single trial conditioned place preference (CPP); type: in vivo, rat; conditions: for single trial CPP to the inhibitor alone: acute treatment alone, data not shown; for single trial morphine-induced CPP on acute co-treatment: rats, FIG. 3B, 3C
From the text: FIGS. 3A-3C present data from a conditioned place preference study where one chamber was paired with the drug treatment and the other chamber was paired with the vehicle. Animals are subsequently tested in the drug free state to determine if the drug pairing produced reward or aversion in the animals.

Morris Water maze = type: in vivo; conditions: FIG. 5A
Rota-rod test = type: in vivo; conditions: 10-30 mg/kg i.p., FIG. 5B
[4] = Novel object recognition test; type: in vivo; conditions: data not shown
rats [5] = test: Radial arm maze task for source and spatial working memory; conditions: MK801 0.1 or 0.2 mg/kg i.p., IC87201 and ZL006 10 mg/kg i.p., 30 min after injection
Description: Rats were trained in a radial arm maze task that tests both source and spatial working memory for these experiments. Data are average of three trials 30 min after drug injection (n=6/group).
Memory impairment can confound CPP studies that depend on learning. Experiments were conducted to determine whether PSD95-nNOS inhibitors impair normal memory functions or show favorable side effect profiles compared to NMDAR antagonist MK801. We used a highly sensitive “source memory” task developed by applicants for use in rats to better mimic types of memory that are actually impaired in humans.

rats [6] = conditions: for conditioned place preference to morphine on coadministration: inhibitor 10 mg/kg i.p. × 4 pairings with morphine 6 mg/kg i.p., FIG. 4E, 4F
[7] = cited from earlier work; for pain hypersensitivity / pathological pain: chronic pain models; for nociceptive responding / basal nociceptive thresholds without injury: naïve animals, absence of injury
rats [8] = conditions: cited from earlier work
rats [9] = test: Morphine self-administration, FR1 schedule (preliminary study); type: in vivo, rat; conditions: morphine 0.1 mg/kg/injection
DA efflux in NAc shell = test: Fast-scan cyclic voltammetry of electrically evoked DA in NAc shell; type: in vivo, rat
From the text: Design and Rationale: Although FSCV can record spontaneously occurring DA transients in behaving animals, the anesthetized preparation is preferred because it provides reliable and reproducible DA signals independent of behavioral activity. In fact, the fluctuating and intermittent nature of behavior-related DA signals (e.g.,) could confound efforts to establish a first-ever characterization of PSD95-nNOS disrupters on DA dynamics. […] Rats are fixed in a stereotaxic frame, and a carbon-fiber working electrode (6 μm diameter) is lowered into NAc shell. A bipolar stimulating electrode is lowered over the ipsilateral MFB to evoke endogenous DA release. An Ag/AgCl reference is placed on the contralateral cortex. […] Voltammograms are obtained every 100 ms at a scan rate of 400 v/s.
The basic design is to collect baseline DA signals (30 min) evoked by MFB stimulation, administer (ip) test drug(s) or vehicle, and collect post-administration evoked DA signals. […] The effects of each compound (injected i.p.) will be monitored for at least 60 min and tested in separate groups of rats (n=10/group). […] To evoke DA release, we apply a biphasic current (60 Hz, 0.4 s, 300 μA) to the stimulating electrode.
Stimulations at 60 Hz are applied every 2 min to ensure renewal of the readily releasable DA pool. Evoked signals are resolved into respective rates for release and uptake, and pre- and postdrug data are compared. Upon completion of recording, the working electrode is used for postcalibration testing to estimate the in vivo concentration of DA. The analysis used to assess changes in DA release and uptake involves a modification of Michaelis-Menten kinetics. We use mathematical modeling that describes the rate of change in evoked DA concentration as the counteracting balance of release and reuptake: d[DA]/dt=[DA]p*f−Vmax/(Km/[DA]+1), where [DA] is the extracellular DA concentration, [DA]p refers to the extracellular DA concentration evoked per stimulus pulse, Vmax represents the Michaelis-Menten term for maximal uptake rate, Km is the Michaelis-Menten term inversely proportional to transporter affinity, and f is the frequency of the stimulation train. Thus, both Km and Vmax are Michaelis-Menten rate constants that describe uptake (see FIG. 7B). [DA]p describes the rate of stimulated release. Km is held constant at a 0.2 μM, the reported value in striatum for anesthetized rodents. [DA]p and Vmax are determined by the above equation in combination with curve-fitting software that incorporates a simplex minimization algorithm.

mice = conditions: wild type (WT) but not nNOS −/− mice; cited from earlier work
nNOS with PSD95 = target: T2, nNOS with PSD95 (Mus musculus, UniProt Q62108+Q9Z0J4); conditions: WT but not nNOS −/− mice; cited from earlier work
T2 construct: host or cells: ischemic cortex of wild-type mice

PSD95-nNOS [10] = target: T1, PSD95-nNOS; conditions: as described for the control compound; cited from earlier work

T1 sequence (P78352 whole entry): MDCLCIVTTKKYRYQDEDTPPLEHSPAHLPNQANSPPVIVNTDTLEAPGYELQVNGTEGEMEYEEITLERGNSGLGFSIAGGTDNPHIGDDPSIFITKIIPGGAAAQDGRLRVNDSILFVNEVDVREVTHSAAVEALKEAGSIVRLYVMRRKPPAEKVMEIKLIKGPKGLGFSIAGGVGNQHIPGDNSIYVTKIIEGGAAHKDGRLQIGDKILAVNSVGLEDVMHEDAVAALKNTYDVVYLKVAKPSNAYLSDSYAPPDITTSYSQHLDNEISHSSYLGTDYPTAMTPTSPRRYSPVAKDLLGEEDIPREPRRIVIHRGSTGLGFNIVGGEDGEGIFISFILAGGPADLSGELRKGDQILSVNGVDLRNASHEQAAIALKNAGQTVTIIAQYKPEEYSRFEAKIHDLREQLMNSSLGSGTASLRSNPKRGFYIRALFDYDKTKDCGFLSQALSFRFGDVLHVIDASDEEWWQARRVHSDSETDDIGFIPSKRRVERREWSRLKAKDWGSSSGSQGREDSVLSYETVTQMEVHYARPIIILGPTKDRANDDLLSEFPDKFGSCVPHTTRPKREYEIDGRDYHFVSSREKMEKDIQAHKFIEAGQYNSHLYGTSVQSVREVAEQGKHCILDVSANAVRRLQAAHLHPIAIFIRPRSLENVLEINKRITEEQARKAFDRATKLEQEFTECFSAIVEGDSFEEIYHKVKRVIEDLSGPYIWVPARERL
T1 sequence (P29475 whole entry): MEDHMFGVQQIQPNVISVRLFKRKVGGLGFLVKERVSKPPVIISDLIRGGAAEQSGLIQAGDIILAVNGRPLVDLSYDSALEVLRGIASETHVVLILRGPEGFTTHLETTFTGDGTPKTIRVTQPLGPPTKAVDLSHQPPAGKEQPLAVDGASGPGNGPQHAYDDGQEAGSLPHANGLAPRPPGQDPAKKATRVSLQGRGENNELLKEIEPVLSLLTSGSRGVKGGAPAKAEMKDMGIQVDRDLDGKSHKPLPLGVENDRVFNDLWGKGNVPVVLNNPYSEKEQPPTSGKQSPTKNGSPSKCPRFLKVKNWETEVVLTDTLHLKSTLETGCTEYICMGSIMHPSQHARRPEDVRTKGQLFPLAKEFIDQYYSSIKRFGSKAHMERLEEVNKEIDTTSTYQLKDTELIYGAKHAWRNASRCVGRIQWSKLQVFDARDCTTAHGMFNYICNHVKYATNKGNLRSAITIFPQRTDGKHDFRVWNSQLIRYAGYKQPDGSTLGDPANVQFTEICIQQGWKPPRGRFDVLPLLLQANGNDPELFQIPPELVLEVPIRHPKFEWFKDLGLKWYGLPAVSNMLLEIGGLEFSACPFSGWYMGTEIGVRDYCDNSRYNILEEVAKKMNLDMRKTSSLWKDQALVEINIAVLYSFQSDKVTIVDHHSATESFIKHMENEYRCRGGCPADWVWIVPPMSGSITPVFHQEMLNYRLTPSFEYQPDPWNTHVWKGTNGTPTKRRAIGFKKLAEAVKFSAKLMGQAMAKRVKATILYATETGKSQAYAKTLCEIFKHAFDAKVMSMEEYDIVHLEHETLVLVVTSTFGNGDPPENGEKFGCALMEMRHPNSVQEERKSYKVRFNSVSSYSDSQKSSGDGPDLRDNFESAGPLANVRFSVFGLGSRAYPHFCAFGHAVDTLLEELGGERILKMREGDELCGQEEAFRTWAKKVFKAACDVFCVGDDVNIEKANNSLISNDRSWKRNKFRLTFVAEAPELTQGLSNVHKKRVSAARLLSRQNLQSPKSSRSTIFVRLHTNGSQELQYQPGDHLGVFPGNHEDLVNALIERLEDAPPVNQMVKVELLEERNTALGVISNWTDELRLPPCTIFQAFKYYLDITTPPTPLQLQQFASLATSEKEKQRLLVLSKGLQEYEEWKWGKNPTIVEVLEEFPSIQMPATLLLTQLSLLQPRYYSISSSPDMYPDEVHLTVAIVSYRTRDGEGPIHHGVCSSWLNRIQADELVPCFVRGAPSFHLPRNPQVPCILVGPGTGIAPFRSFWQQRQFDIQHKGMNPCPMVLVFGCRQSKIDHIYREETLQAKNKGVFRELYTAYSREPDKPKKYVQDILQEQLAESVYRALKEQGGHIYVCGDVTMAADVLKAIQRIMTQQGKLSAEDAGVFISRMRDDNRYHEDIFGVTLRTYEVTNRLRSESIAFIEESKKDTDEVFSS
Sequence of PSD95-ERB4 (P78352 whole entry): as the sequence (P78352 whole entry) above
T2 sequence (Q9Z0J4 whole entry): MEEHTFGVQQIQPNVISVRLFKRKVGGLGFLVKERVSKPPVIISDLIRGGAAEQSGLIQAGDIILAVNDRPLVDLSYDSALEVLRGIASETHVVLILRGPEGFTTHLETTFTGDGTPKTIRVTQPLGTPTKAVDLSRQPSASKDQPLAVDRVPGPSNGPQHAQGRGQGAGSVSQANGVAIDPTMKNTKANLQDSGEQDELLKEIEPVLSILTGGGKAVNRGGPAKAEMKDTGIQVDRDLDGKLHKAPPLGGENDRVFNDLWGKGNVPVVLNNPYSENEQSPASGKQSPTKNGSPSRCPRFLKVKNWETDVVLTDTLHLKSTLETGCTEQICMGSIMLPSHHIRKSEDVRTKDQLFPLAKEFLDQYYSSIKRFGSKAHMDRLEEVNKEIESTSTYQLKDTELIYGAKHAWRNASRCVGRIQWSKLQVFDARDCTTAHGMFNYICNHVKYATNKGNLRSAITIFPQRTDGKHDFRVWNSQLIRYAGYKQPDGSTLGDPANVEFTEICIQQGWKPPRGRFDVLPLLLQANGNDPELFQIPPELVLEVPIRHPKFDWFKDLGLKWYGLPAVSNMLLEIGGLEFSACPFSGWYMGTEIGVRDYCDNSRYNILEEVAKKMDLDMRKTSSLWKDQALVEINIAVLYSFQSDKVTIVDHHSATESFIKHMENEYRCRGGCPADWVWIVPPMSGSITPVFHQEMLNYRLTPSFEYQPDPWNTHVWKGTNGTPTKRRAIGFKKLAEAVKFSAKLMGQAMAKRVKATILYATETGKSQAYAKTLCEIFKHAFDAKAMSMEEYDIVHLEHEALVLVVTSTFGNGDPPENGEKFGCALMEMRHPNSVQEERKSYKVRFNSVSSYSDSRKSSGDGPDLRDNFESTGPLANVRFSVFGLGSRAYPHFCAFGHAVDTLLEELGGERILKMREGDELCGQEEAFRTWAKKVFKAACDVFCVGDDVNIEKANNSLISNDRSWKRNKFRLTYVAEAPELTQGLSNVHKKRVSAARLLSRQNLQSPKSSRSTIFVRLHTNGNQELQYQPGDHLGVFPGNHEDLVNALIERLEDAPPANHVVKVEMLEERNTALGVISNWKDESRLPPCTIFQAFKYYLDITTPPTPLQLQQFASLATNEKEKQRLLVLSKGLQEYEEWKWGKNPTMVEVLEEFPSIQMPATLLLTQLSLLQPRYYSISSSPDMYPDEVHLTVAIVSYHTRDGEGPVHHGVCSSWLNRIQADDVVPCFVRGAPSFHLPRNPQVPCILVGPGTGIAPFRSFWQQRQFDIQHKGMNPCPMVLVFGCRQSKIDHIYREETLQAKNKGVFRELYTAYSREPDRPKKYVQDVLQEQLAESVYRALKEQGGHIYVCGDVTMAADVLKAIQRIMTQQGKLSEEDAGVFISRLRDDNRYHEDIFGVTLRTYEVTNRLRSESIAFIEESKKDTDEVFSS
T2 sequence (Q62108 whole entry): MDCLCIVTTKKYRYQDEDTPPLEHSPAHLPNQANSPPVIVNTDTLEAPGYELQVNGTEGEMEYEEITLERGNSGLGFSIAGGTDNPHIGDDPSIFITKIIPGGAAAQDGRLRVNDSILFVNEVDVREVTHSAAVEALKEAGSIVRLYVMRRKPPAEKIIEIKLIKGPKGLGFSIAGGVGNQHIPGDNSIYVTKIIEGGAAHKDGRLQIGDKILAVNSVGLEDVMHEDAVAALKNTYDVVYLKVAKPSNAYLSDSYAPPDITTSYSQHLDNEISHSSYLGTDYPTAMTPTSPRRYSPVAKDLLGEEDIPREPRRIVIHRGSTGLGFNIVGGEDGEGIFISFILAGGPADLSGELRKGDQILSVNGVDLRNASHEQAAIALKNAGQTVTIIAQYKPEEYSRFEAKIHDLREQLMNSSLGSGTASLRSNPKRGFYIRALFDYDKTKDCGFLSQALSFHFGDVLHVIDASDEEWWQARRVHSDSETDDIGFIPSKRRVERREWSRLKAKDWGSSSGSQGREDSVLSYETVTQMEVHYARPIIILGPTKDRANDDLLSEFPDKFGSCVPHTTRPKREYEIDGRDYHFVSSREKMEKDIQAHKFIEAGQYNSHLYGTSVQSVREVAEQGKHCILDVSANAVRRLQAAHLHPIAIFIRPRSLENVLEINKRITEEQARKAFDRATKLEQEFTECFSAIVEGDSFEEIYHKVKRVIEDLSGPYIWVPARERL

Oc1c(Cl)cc(Cl)cc1CNc1ccc2[nH]nnc2c1 [IC87201]
disruption of PSD95-nNOS interaction / binding (PSD95-nNOS [1]): disrupt PSD95-nNOS; also recorded: inhibited PSD95-nNOS binding | disruption of unrelated PSD95-ERB4 interactions (PSD95-ERB4): not unrelated PSD95-ERB4 interactions; also recorded: without disrupting interaction of PSD95 with unrelated proteins | NMDA-induced NO formation [2]: inhibit NMDA-induced NO formation | NMDA-stimulated cGMP levels [2]: suppressed NMDA-stimulated cGMP levels | single trial CPP to the inhibitor alone (rats [3]): failed to do so | single trial morphine-induced CPP on acute co-treatment (rats [3]; morphine 6 mg/kg i.p.): blocked | memory in the Morris Water maze (Morris Water maze): do not impair memory | motor performance in the rota-rod test (Rota-rod test): did not impair | memory in the novel object recognition test [4]: did not impair memory | source memory (rats [5]): failed to impair spatial memory or source memory | spatial working memory (rats [5]): failed to impair spatial memory or source memory | conditioned place preference to morphine on coadministration (rats [6]): conditioned place preference to morphine was no longer observed | pain hypersensitivity / pathological pain [7]: suppress pain hypersensitivity; also recorded: suppresses pathological pain | nociceptive responding / basal nociceptive thresholds without injury [7]: without altering nociceptive responding; also recorded: without altering basal nociceptive thresholds

COC(=O)[C@@H](N)CCCNC(=N)N[N+](=O)[O-] [L-NAME]
L-arginine enhancement of acquisition of CPP to morphine (rats [8]; NOS inhibitor): this enhancement was blocked

CN1CC[C@]23c4c5ccc(O)c4O[C@H]2[C@@H](O)C=C[C@H]3[C@H]1C5 [morphine, reference compound]
single trial CPP to the drug alone (morphine) (rats [3]; naïve rats, morphine 6 mg/kg i.p., FIG. 3A): robust single trial CPP | active versus inactive lever presses in self-administration (rats [9]; FR1, naïve, sham and neuropathic rats): Active lever presses were greater than inactive presses in all groups | mechanical thresholds (rats [9]; naïve rats, FIG. 6A): did not alter mechanical thresholds | conditioned place preference to morphine, repeated pairings (rats [6]; morphine 6 or 10 mg/kg i.p. × 4 pairings, FIG. 4C, 4D): produced robust conditioned place preference

O=C(O)c1ccc(NCc2cc(Cl)cc(Cl)c2O)cc1O [ZL006]
disruption of PSD95-nNOS interaction / binding (PSD95-nNOS [1]): disrupt PSD95-nNOS; also recorded: inhibited PSD95-nNOS binding | disruption of unrelated PSD95-ERB4 interactions (PSD95-ERB4): not unrelated PSD95-ERB4 interactions; also recorded: without disrupting interaction of PSD95 with unrelated proteins | NMDA-induced NO formation [2]: inhibit NMDA-induced NO formation | NMDA-stimulated cGMP levels [2]: suppressed NMDA-stimulated cGMP levels | single trial CPP to the inhibitor alone (rats [3]): failed to do so | single trial morphine-induced CPP on acute co-treatment (rats [3]; morphine 6 mg/kg i.p.): blocked | memory in the Morris Water maze (Morris Water maze): do not impair memory | motor performance in the rota-rod test (Rota-rod test): did not impair | memory in the novel object recognition test [4]: did not impair memory | source memory (rats [5]): failed to impair spatial memory or source memory | spatial working memory (rats [5]): failed to impair spatial memory or source memory | morphine-induced dopamine efflux on co-administration (DA efflux in NAc shell; ZL006 10 mg/kg i.p. with morphine 6 mg/kg i.p., NAc shell, FIG. 8C): blocked the morphine-induced increase in evoked DA in NAc shell; also recorded: suppresses morphine-induced dopamine efflux in nucleus accumbens shell | amount of DA released per stimulus pulse (DA efflux in NAc shell; ZL006 10 mg/kg i.p., FIG. 7C): does not affect the amount of DA released per stimulus pulse | amount of DA uptake per stimulus pulse (DA efflux in NAc shell; ZL006 10 mg/kg i.p., FIG. 7D): does not affect the amount of DA uptake per stimulus pulse | evoked DA response before and 30 min after drug (DA efflux in NAc shell; ZL006 10 mg/kg i.p., anesthetized rat, FIG. 8B, pilot data, 10 mg/kg): clear decrease in DA signal within 30 min; also recorded: decrease in DA evoked response | evoked dopamine (DA) efflux, drug alone (DA efflux in NAc shell; medial forebrain bundle stimulation, morphine 6 mg/kg i.p., ZL006 10 mg/kg i.p., FIG. 7A, 7B): does not increase dopamine (DA) efflux | conditioned place preference to morphine on coadministration (rats [6]): conditioned place preference to morphine was no longer observed | ischemia induced damage (mice): inhibits ischemia induced damage | association of nNOS with PSD95 in ischemic cortices (nNOS with PSD95): inhibits the association of nNOS with PSD95 in ischemic cortices | pain hypersensitivity / pathological pain [7]: suppress pain hypersensitivity | nociceptive responding / basal nociceptive thresholds without injury [7]: without altering nociceptive responding

N=C(N)NCCC[C@H](N)C(=O)O [L-arginine]
acquisition of CPP to morphine (rats [8]; NO donor in the central amygdala): increased acquisition of CPP to morphine

O=C(O)c1cc(NCc2cc(Cl)cc(Cl)c2O)ccc1O [ZL007, reference compound]
disruption of PSD95-nNOS interactions by the inactive analog (PSD95-nNOS [10]): does not disrupt PSD95-nNOS interactions

C[C@]12N[C@H](Cc3ccccc31)c1ccccc12 [MK801, reference compound]
NMDA-stimulated cGMP levels [2]: suppressed NMDA-stimulated cGMP levels | source memory (rats [5]): eliminated (i.e. did not differ from chance) | spatial working memory (rats [5]): unaffected | morphine-induced CPP (rats [8]; rats, MK801 0.1 mg/kg i.p., doses that do not alter chamber preference): blocked
